In PubChem BioAssay (NCI):
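Compound exposure: 48 hours, 5 concentrations, 96-well plates. GI50 is the concentration that inhibits growth by half. TGI denotes the concentration required for complete inhibition of growth.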

How the values were obtained:
Assay in all cases: growth of human tumour cells (NCI), 48 h; in the data active = GI50 below about 0.43 µM; inactive = the rest
NCI/ADR-RES ovarian = tested on: NCI/ADR-RES ovarian
LOX IMVI melanoma = tested on: LOX IMVI melanoma
OVCAR-3 ovarian = tested on: OVCAR-3 ovarian
M14 melanoma = tested on: M14 melanoma
SN12C renal = tested on: SN12C renal
NCI-H460 lung = tested on: NCI-H460 lung
BT-549 breast = tested on: BT-549 breast
HS 578T breast = tested on: HS 578T breast
A498 renal = tested on: A498 renal
SNB-19 CNS = tested on: SNB-19 CNS
TK-10 renal = tested on: TK-10 renal
HCC-2998 colon = tested on: HCC-2998 colon
A549 NSCLC = tested on: A549 NSCLC
NCI-H226 lung = tested on: NCI-H226 lung
T-47D breast = tested on: T-47D breast
UACC-62 melanoma = tested on: UACC-62 melanoma
SF-295 CNS = tested on: SF-295 CNS
HT29 colon = tested on: HT29 colon
HCT-15 colon = tested on: HCT-15 colon
NCI-H23 lung = tested on: NCI-H23 lung
OVCAR-5 ovarian = tested on: OVCAR-5 ovarian
PC-3 prostate = tested on: PC-3 prostate
K-562 leukemia = tested on: K-562 leukemia
NCI-H522 lung = tested on: NCI-H522 lung
SK-MEL-28 melanoma = tested on: SK-MEL-28 melanoma
OVCAR-4 ovarian = tested on: OVCAR-4 ovarian
SF-268 CNS = tested on: SF-268 CNS
CAKI-1 renal = tested on: CAKI-1 renal
HOP-92 NSCLC = tested on: HOP-92 NSCLC
SK-OV-3 ovarian = tested on: SK-OV-3 ovarian
RXF 393 renal = tested on: RXF 393 renal
MCF7 breast = tested on: MCF7 breast
SK-MEL-5 melanoma = tested on: SK-MEL-5 melanoma
IGROV1 ovarian = tested on: IGROV1 ovarian
OVCAR-8 ovarian = tested on: OVCAR-8 ovarian
ACHN renal = tested on: ACHN renal
UO-31 renal = tested on: UO-31 renal
786-0 renal = tested on: 786-0 renal
MDA-MB-231 breast = tested on: MDA-MB-231 breast
MDA-MB-435 = tested on: MDA-MB-435
CCRF-CEM leukemia = tested on: CCRF-CEM leukemia
SNB-75 CNS = tested on: SNB-75 CNS
U251 CNS = tested on: U251 CNS
SR leukemia = tested on: SR leukemia
UACC-257 melanoma = tested on: UACC-257 melanoma
SW-620 colon = tested on: SW-620 colon
KM12 colon = tested on: KM12 colon
RPMI-8226 leukemia = tested on: RPMI-8226 leukemia
HCT-116 colon = tested on: HCT-116 colon
MOLT-4 leukemia = tested on: MOLT-4 leukemia
HOP-62 NSCLC = tested on: HOP-62 NSCLC
SF-539 CNS = tested on: SF-539 CNS
SK-MEL-2 melanoma = tested on: SK-MEL-2 melanoma
DU-145 prostate = tested on: DU-145 prostate
COLO 205 colon = tested on: COLO 205 colon
HL-60(TB) leukemia = tested on: HL-60(TB) leukemia
MALME-3M melanoma = tested on: MALME-3M melanoma
EKVX NSCLC = tested on: EKVX NSCLC

Nc1c(C(=O)c2cccc(OC[C@@H](O)CO)c2)cnn1-c1ccc(F)cc1
> 25 µM: TGI (NCI/ADR-RES ovarian) | TGI (LOX IMVI melanoma) | TGI (OVCAR-3 ovarian) | TGI (M14 melanoma) | TGI (SN12C renal) | TGI (NCI-H460 lung) | TGI (BT-549 breast) | TGI (HS 578T breast) | TGI (A498 renal) | TGI (SNB-19 CNS) | TGI (TK-10 renal) | TGI (HCC-2998 colon) | TGI (A549 NSCLC) | TGI (NCI-H226 lung) | TGI (T-47D breast) | TGI (UACC-62 melanoma) | TGI (SF-295 CNS) | TGI (HT29 colon) | TGI (HCT-15 colon) | TGI (NCI-H23 lung) | TGI (OVCAR-5 ovarian) | TGI (PC-3 prostate) | TGI (K-562 leukemia) | TGI (NCI-H522 lung) | TGI (SK-MEL-28 melanoma) | TGI (OVCAR-4 ovarian) | TGI (SF-268 CNS) | TGI (CAKI-1 renal) | TGI (HOP-92 NSCLC) | TGI (SK-OV-3 ovarian) | TGI (RXF 393 renal) | TGI (MCF7 breast) | TGI (SK-MEL-5 melanoma) | TGI (IGROV1 ovarian) | TGI (OVCAR-8 ovarian) | TGI (ACHN renal) | TGI (UO-31 renal) | TGI (786-0 renal) | TGI (MDA-MB-231 breast) | TGI (MDA-MB-435) | TGI (CCRF-CEM leukemia) | TGI (SNB-75 CNS) | TGI (U251 CNS) | TGI (SR leukemia) | TGI (UACC-257 melanoma) | TGI (SW-620 colon) | TGI (KM12 colon) | TGI (RPMI-8226 leukemia) | TGI (HCT-116 colon) | TGI (MOLT-4 leukemia) | TGI (HOP-62 NSCLC) | TGI (SF-539 CNS) | TGI (SK-MEL-2 melanoma) | TGI (DU-145 prostate) | TGI (COLO 205 colon) | TGI (HL-60(TB) leukemia) | TGI (MALME-3M melanoma)
inactive: GI50 (NCI/ADR-RES ovarian) > 25 µM | GI50 (LOX IMVI melanoma) > 25 µM | GI50 (OVCAR-3 ovarian) > 25 µM | GI50 (M14 melanoma) > 25 µM | GI50 (SN12C renal) > 25 µM | GI50 (NCI-H460 lung) > 25 µM | GI50 (BT-549 breast) > 25 µM | GI50 (HS 578T breast) > 25 µM | GI50 (A498 renal) > 25 µM | GI50 (SNB-19 CNS) > 25 µM | GI50 (TK-10 renal) > 25 µM | GI50 (HCC-2998 colon) > 25 µM | GI50 (A549 NSCLC) > 25 µM | GI50 (NCI-H226 lung) > 25 µM | GI50 (T-47D breast) > 25 µM | GI50 (UACC-62 melanoma) > 25 µM | GI50 (SF-295 CNS) > 25 µM | GI50 (HT29 colon) > 25 µM | GI50 (HCT-15 colon) > 25 µM | GI50 (NCI-H23 lung) > 25 µM | GI50 (OVCAR-5 ovarian) > 25 µM | GI50 (PC-3 prostate) > 25 µM | GI50 (K-562 leukemia) > 25 µM | GI50 (NCI-H522 lung) > 25 µM | GI50 (SK-MEL-28 melanoma) > 25 µM | GI50 (OVCAR-4 ovarian) > 20.9 µM | GI50 (SF-268 CNS) > 25 µM | GI50 (CAKI-1 renal) > 25 µM | GI50 (HOP-92 NSCLC) > 25 µM | GI50 (SK-OV-3 ovarian) > 25 µM | GI50 (RXF 393 renal) > 25 µM | GI50 (MCF7 breast) > 25 µM | GI50 (SK-MEL-5 melanoma) > 25 µM | GI50 (IGROV1 ovarian) > 25 µM | GI50 (OVCAR-8 ovarian) > 25 µM | GI50 (ACHN renal) > 25 µM | GI50 (UO-31 renal) > 25 µM | GI50 (786-0 renal) > 25 µM | GI50 (MDA-MB-231 breast) > 25 µM | GI50 (MDA-MB-435) > 25 µM | GI50 (CCRF-CEM leukemia) > 25 µM | GI50 (SNB-75 CNS) > 25 µM | GI50 (U251 CNS) > 25 µM | GI50 (SR leukemia) > 25 µM | GI50 (UACC-257 melanoma) > 25 µM | GI50 (SW-620 colon) > 25 µM | GI50 (KM12 colon) > 25 µM | GI50 (RPMI-8226 leukemia) > 25 µM | GI50 (HCT-116 colon) > 25 µM | GI50 (MOLT-4 leukemia) > 25 µM | GI50 (HOP-62 NSCLC) > 25 µM | GI50 (SF-539 CNS) > 25 µM | GI50 (SK-MEL-2 melanoma) > 25 µM | GI50 (DU-145 prostate) > 25 µM | GI50 (COLO 205 colon) > 25 µM | GI50 (HL-60(TB) leukemia) > 25 µM | GI50 (MALME-3M melanoma) > 25 µM

OCCN(CCO)c1ccc2c(-c3ccccc3)cc(N(CCO)CCO)nc2n1
> 100 µM: TGI (NCI/ADR-RES ovarian) | TGI (OVCAR-3 ovarian) | TGI (M14 melanoma) | TGI (SN12C renal) | TGI (NCI-H460 lung) | TGI (BT-549 breast) | TGI (HS 578T breast) | TGI (A498 renal) | TGI (EKVX NSCLC) | TGI (SNB-19 CNS) | TGI (TK-10 renal) | TGI (HCC-2998 colon) | TGI (A549 NSCLC) | TGI (NCI-H226 lung) | TGI (T-47D breast) | TGI (UACC-62 melanoma) | TGI (SF-295 CNS) | TGI (HT29 colon) | TGI (HCT-15 colon) | TGI (NCI-H23 lung) | TGI (OVCAR-5 ovarian) | TGI (PC-3 prostate) | TGI (K-562 leukemia) | TGI (NCI-H522 lung) | TGI (SK-MEL-28 melanoma) | TGI (OVCAR-4 ovarian) | TGI (SF-268 CNS) | TGI (CAKI-1 renal) | TGI (SK-OV-3 ovarian) | TGI (RXF 393 renal) | TGI (MCF7 breast) | TGI (SK-MEL-5 melanoma) | TGI (IGROV1 ovarian) | TGI (OVCAR-8 ovarian) | TGI (ACHN renal) | TGI (UO-31 renal) | TGI (786-0 renal) | TGI (MDA-MB-231 breast) | TGI (MDA-MB-435) | TGI (CCRF-CEM leukemia) | TGI (SNB-75 CNS) | TGI (U251 CNS) | TGI (SR leukemia) | TGI (UACC-257 melanoma) | TGI (SW-620 colon) | TGI (KM12 colon) | TGI (RPMI-8226 leukemia) | TGI (HCT-116 colon) | TGI (MOLT-4 leukemia) | TGI (HOP-62 NSCLC) | TGI (SK-MEL-2 melanoma) | TGI (DU-145 prostate) | TGI (COLO 205 colon) | TGI (MALME-3M melanoma)
